Results as given in patent US12102685B2, “Immodulator peptides covalently modified with small molecules” (priority 2020, dated 2024).
Marks after values point to notes of the source that are not given here. Peptide text beside a SMILES is read from it.

Tests used:
[1] = NTA-metal-affinity fluorescence assay, FITC-labeled IM3 (x2B a); format: binding; conditions: FITC-labeled IM3 1 ug/well
Protocol: NTA-metal-affinity fluorescence assay was performed using 96-well NTA-metal-coated plates readily available from commercial sources such as Qiagen (Germantown, MD). NTA was charged with ferrous or ferric iron, zinc, copper, calcium, vanadium, ruthenium, cobalt, titanium, manganese or other metals. 400 ng of FITC-labeled immodulator peptide (or biotinylated immodulator peptide complexed to Alexa-488-labeled streptavidin) in PBS buffer was added per plate. After incubation at room temperature for 60 minutes, excess peptide was washed off and peptide was detected by measuring fluorescence (excitation 490 nm, emmission 525 nm) in a fluorometer. • (a) Using FITC-labeled IM3 peptide (1 ug/well) in the fluorescent binding assay: • EDTA-treated control: 2,251±1,186 • Ferrous iron: 170,441±11,264 (p<0.001)* • Copper: 13,644±5566 (p<0.05)* • Calcium: 48,822±11,990 (p<0.01)* • *p values are relative to EDTA-treated control • (b) Competition binding assay to ferrous iron, calcium, copper and zinc-charged NTA-coated plates using FITC-labeled IM3 peptide (0.5 uM) and 8× (4 uM) unlabelled competitor peptides IM3N1, IM3N2 (*all comparisons to PBS control are p<0.01); # fluorescent value of binding to […] was set at 100.

THP1-Dual monocytes = assay: Succinic acid in THP1-Dual supernatant (x4A); format: cell-based
Protocol: Immune modulation functions of immodulator peptides were measured using the monocyte reporter cell line THP1-Dual (Invivogen, San Diego, CA), which provides convenient readouts for STING and NF-kappa-B pathways. Optionally, succinic acid, cytokine and chemokine production were also measured. THP1-Dual cell line was obtained from Invivogen. Cells were grown in a T-75 flask in RPMI Medium containing 20% fetal bovine serum, blasticidin ([…]), zeocin ([…]) and penicillin-streptomycin at 37° C. in a humidified, 5% CO2 incubator. Cells ([…], 8,000 cells/well) were plated in a 96-well plate and incubated overnight at 37 °C in a humidified, 5% CO2 incubator. Next day, […] of compounds were added (quadruplicate wells). After 24 hour incubation with the compound, supernatants were harvested and stored at 4° C. prior to assay.
STING activity using reagents QuantiBlu and QuantiLuc respectively, according to the manufacturer's recommendations (Invivogen, San Diego, CA). Succinic acid was measured by using a kit from Megazyme Inc (Cambridge, MA). Control value of activity was set to 100 in each assay. […] PAM3C=25 ng/ml PAM3CSK4 (TLR1/2 inducer); Poly(I:C)=10 ug/ml (TLR3 inducer); PAM2C=25 ng/ml PAM2CSK4 (TLR2/6 inducer); KIN14=4 uM KIN-1400 (RIG-I inducer); cytB=1 uM cytosporone B (Nur77 inducer); C-178=1 uM STING inhibitor; NFkBi=50 ug/ml NFkB inhibitor peptide; SB2021=10 uM p38MAPK inhibitor; *p<0.05, **p<0.01 vs IM3 control; #p<0.01 vs “no inducer” control; SUCC=succinic acid; nd=not done; Peptide was added to cells at 400 nM.
Peptides were added to cells at 400 nM. […]

rat scald model = assay: Rat scald model, nephrilin plus or minus metal (x5A); format: in vivo, Sprague Dawley rats; conditions: male rats, burn, 4 mg/kg sc once daily days 1-7
Protocol: Experiment x5A. Nephrilin peptide (IM3N1) is a designed inhibitor of Rictor complex (also known as mTORC2), an evolutionarily conserved assembly believed to modulate responses to cellular stress. […] This study explores the effect of nephrilin plus iron formulations on clinically relevant outcomes in the rat scald model. Animals were treated with nephrilin by subcutaneous bolus injection on days 1-7 post-burn. Equimolar ferric iron in the formulation improved the positive systemic effects of nephrilin on kidney function, glycemic control, oxidative stress, early hyperinflammation, late inflammasome activation, hyperangiogenesis and body mass, all variables previously shown to bear upon clinically relevant burn injury outcomes. The rat scald model and measurement of clinically relevant variables are disclosed in U.S. Pat. No. 10,369,191. Adult Sprague Dawley rats of both sexes (250-300 gm, Charles River Laboratories, Wilmington, MA, USA) were injected with nephrilin peptide plus or minus equimolar metal (zinc, ferrous iron or ferric iron) once daily by subcutaneous bolus injection, days 1-7; Treatment group sizes were (n=8) for each sex unless otherwise indicated: group S=sham-treated; group B=burn+vehicle; group N1=burn+4 mg/kg nephrilin; group N1/Zn2=burn+4 mg/kg nephrilin/zinc chloride; group N1/Fe2=burn+4 mg/kg nephrilin/ferrous sulphate; groups N1/Fe3 (2, 4 or 8)=burn+2, 4, or 8 mg/kg nephrilin/equimolar ferric chloride. The first dose was administered after completion of the scald procedure. Injection volume was 400 uL. Control animals received the same volume of vehicle.
To make global comparisons of treatment efficacy, we converted values to z-scores. All scores within an efficacy class were averaged, allowing allocation of equal weight to efficacy classes. A composite z-score (average z score across all 7 effect classes) is shown in the last row of the table. This allows direct comparison of efficacy across treatment groups. The sham treatment involves manipulating the animals exactly as in the burn group, but without the burn treatment. The efficacy value for the sham (0.82) is thus the positive control. The negative control is the Burn+vehicle group (−0.61). […] Compared to vehicle or nephrilin treatment alone (−0.31), nephrilin with ferric iron (0.27) is at least twice as efficacious overall. Male rats in the scald model were exposed to vehicle, 2, 4 and 8 mg/kg nephrilin complexed with ferric iron.

## N=C(N)NCCC[C@H](NC(=O)CNC(=O)[C@H](CCCCN)NC(=O)[C@H](CO)NC(=O)[C@@H]1CCCN1C(=O)[C@H](CCCNC(=N)N)NC(=O)[C@H](CS)NC(=O)[C@H](CCC(N)=O)NC(=O)[C@H](CCCCN)NC(=O)[C@H](CCCCN)NC(=O)[C@H](CCCCN)NC(=O)[C@H](Cc1ccc(O)cc1)NC(=O)[C@H](Cc1ccccc1)NC(=O)CNC(=O)[C@H](CCCCN)NC(=O)[C@@H](N)CCCCN)C(=O)N[C@@H](CCCCN)C(=O)N[C@@H](CCCNC(=N)N)C(=O)NCC(=O)N[C@@H](Cc1ccccc1)C(=O)N[C@@H](CS)C(=O)N[C@@H](Cc1c[nH]c2ccccc12)C(=O)O [IM3] (H-KKGFYKKKQCRPSKGRKRGFCW-OH; N-terminus and C-terminus assumed)
[1]; Calcium
  fluorescence: 48,822±11,990
[1]; Copper
  fluorescence: 13,644±5566
[1]; EDTA-treated control
  fluorescence: 2,251±1,186
[1]; Ferrous iron
  fluorescence: 170,441±11,264
THP1-Dual monocytes; peptide 400 nM + KIN1400 (= 100)
  SUCC: 100
THP1-Dual monocytes; peptide 400 nM + KIN1400 + C-178 1 uM
  SUCC: 103.2
THP1-Dual monocytes; peptide 400 nM + KIN1400 + NFkBi 50 ug/ml
  SUCC: 99.2
THP1-Dual monocytes; peptide 400 nM + KIN1400 + SB2021 10 uM
  SUCC: 131.6*
THP1-Dual monocytes; peptide 400 nM + KIN1400 + cytB 1 uM
  SUCC: 96.1
THP1-Dual monocytes; peptide 400 nM + PAM2C (= 100)
  SUCC: 100
THP1-Dual monocytes; peptide 400 nM + PAM2C + C-178 1 uM
  SUCC: 96.1
THP1-Dual monocytes; peptide 400 nM + PAM2C + NFkBi 50 ug/ml
  SUCC: 100.1
THP1-Dual monocytes; peptide 400 nM + PAM2C + SB2021 10 uM
  SUCC: 93.4
THP1-Dual monocytes; peptide 400 nM + PAM2C + cytB 1 uM
  SUCC: 85.1*
THP1-Dual monocytes; peptide 400 nM + PAM3C
  SUCC: 100
THP1-Dual monocytes; peptide 400 nM + PAM3C + C-178 1 uM
  SUCC: 95.3
THP1-Dual monocytes; peptide 400 nM + PAM3C + NFkBi 50 ug/ml
  SUCC: 101.5
THP1-Dual monocytes; peptide 400 nM + PAM3C + SB2021 10 uM
  SUCC: 95.8
THP1-Dual monocytes; peptide 400 nM + PAM3C + cytB 1 uM
  SUCC: 95.4

## RGVTEDYLRLETLVQKVVSKGFYKKKQCRPSKGRKRGFCW [IM3N1]
Rat scald model
  1: early inflammation (24-hr plasma IL-6): 50.6 ± 6.1 pg/mL
  2a: 14-day plasma inflammasome marker IL18: 178.1 ± 19.3 pg/mL
  2b: 14-day plasma inflammasome marker IL1b: 124.3 ± 132 pg/mL
  3a: 14-day plasma hyperangiogenesis marker VEGF-A: 56.1 ± 11.7 pg/mL
  3b: 14-day plasma hyperangiogenesis marker CCL5: 609.7 ± 283 pg/mL
  3c: 14-day plasma hyperangiogenesis marker CXCL5: 1910 ± 380 pg/mL
  4: glycemic control, 14-day GTT (AUC): 139.3 ± 48.6 mg·dL·h
  5: kidney function, 14-day plasma creatinine: 0.34 ± 0.13 mg/dL
  6: systemic oxidative stress, 14-day plasma OHDG: 585 ± 137 pg/mL
  7: weight loss (slope): 2.32 ± 1.01
  3d: hyperangiogenesis marker PctRedPix: 16.51 ± 3.02
Rat scald model; listed as N1, 4 mg/kg
  Avg: composite z-score (average z score across all 7 effect classes): −0.31 ± 0.35
Rat scald model; listed as nephrilin, 4 mg/kg
  Avg: composite z-score (average z score across all 7 effect classes): −0.31
